Source: publication PMC12040969, “Design, synthesis, in silico studies, and apoptotic antiproliferative activity of novel thiazole-2-acetamide derivatives as tubulin polymerization inhibitors” (Frontiers in Chemistry, 2025)
“And” between values parts separate entries of the source, which are not always exact repeats. Equal entries are not always repeated.

Columns and labels:
[1] = test system: Bax in MDAMB-231 cancer cell line; test: Bax level assay; type: cell-based, human; settings: MDAMB-231 cells; for Bax Fold change: relative to untreated control
From the text: (§1) […]. Supplementary Appendix A provides more information.

prostatic - PC-3 = test: Antiproliferative assay (MTT) PC-3; settings: for IC50: read-out: Antiproliferative activity IC50 ± SEM (µM) PC-3, PC-3, MTT
breast - MCF-7 = test: Antiproliferative assay (MTT) MCF-7; settings: for IC50: read-out: Antiproliferative activity IC50 ± SEM (µM) MCF-7, MCF-7, MTT
colon - HCT-116 = test: Antiproliferative assay (MTT) HCT-116; settings: for IC50: read-out: Antiproliferative activity IC50 ± SEM (µM) HCT-116, HCT-116, MTT
[2] = Cell viability assay (MTT), normal cells; type: cell-based; settings: human, MCF-10A normal mammary gland epithelial cells, four-day incubation
[3] = test system: Caspase-9 in MDAMB-231 cancer cell line; test: Caspase-9 activation assay; type: cell-based, human; settings: MDAMB-231 cells; for Caspase-9 Fold change: relative to untreated control
Method: […]. Compound 10o was the least efficient derivative as caspase-9 activators (0.90 ng/mL).
as §1

[4] = test system: Caspase-3 in MDAMB-231 cancer cell line; test: Caspase-3 activation assay; type: cell-based, human; settings: MDAMB-231 cells; for Caspase-3 Fold change: relative to untreated control
From the text: as §1

[5] = test system: Bcl-2 in MDAMB-231 cancer cell line; test: Bcl-2 level assay; type: cell-based, human; settings: MDAMB-231 cells; for Bcl-2 Fold reduction: relative to untreated control
From the text: as §1

tubulin = test: Tubulin polymerization inhibition assay (Cytoskeleton kit); settings: for Tub %inh: 30 min, YB-EGY run; for Tub K.Activity: EC = 120, YB-EGY run; for IC50: read-out: Tubulin inhibition IC50 ± SEM, triplicate for each tested concentration;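 as to all read-outs here: Cell-free tubulin polymerization read by fluorescent reporter enhancement over a 30 min reaction, with the compound-free kit control taken as 100% activity and inhibition relative to it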
[6] = test system: four human cancer cell lines (HCT-116, PC-3, MCF-7, MDAMB-231); test: Antiproliferative assay, mean of four cell lines (GI50); settings: for IC50: Homo sapiens, read-out: GI50 (average IC50)
- MDAMB-231 = test: Antiproliferative assay (MTT) MDAMB-231
pancreatic - MDAMB-231 = test: Antiproliferative assay (MTT) MDAMB-231; settings: for IC50: read-out: Antiproliferative activity IC50 ± SEM (µM) MDAMB-231, MDAMB-231, MTT

Compound: Cc1nc(SCC(=O)Nc2nc(-c3ccccc3)cs2)sc1C(=O)/C=C/c1ccccc1 [Compound 10a, (E)-2-((5-cinnamoyl-4-methylthiazol-2-yl)thio)-N-(4-phenylthiazol-2-yl)acetamide]
- Bax Conc [1]: 305 pg/mL and 305 ± 8 pg/mL
- Higher efficacy than sorafenib, PC-3 (prostatic - PC-3; PC-3 prostate cancer cell line): 1.7 fold
- IC50 (prostatic - PC-3): 7 ± 0.6 µM
- IC50 (breast - MCF-7): 4 ± 0.2 µM
- IC50 (colon - HCT-116): 8 ± 0.7 µM
- viability at 96 h, 50 µM [2]: 87%
- Caspase-9 Conc [3]: 1.60 ng/mL and 1.60 ± 0.10 ng/mL
- Caspase-3 Conc [4]: 625 ± 5 pg/mL
- Bcl-2 Conc [5]: 0.90 ng/mL
- Tub %inh (tubulin; conc 0.1 (unit not given)): 16.5%
- Tub K.Activity (tubulin; conc 0.1 (unit not given)): 100.18
- Tub %inh (tubulin; conc 1 (unit not given)): 39.4%
- Tub K.Activity (tubulin; conc 1 (unit not given)): 72.71
- Tub %inh (tubulin; conc 10 (unit not given)): 60.5%
- Tub K.Activity (tubulin; conc 10 (unit not given)): 47.391
- Tub %inh (tubulin; conc 50 (unit not given)): 78.9%
- Tub K.Activity (tubulin; conc 50 (unit not given)): 25.374
- Tub %inh (tubulin; conc 100 (unit not given)): 92.7%
- Tub K.Activity (tubulin; conc 100 (unit not given)): 8.7594

Compound: COc1ccc(/C=C/C(=O)c2sc(SCC(=O)Nc3nc(-c4ccc(C)cc4)cs3)nc2C)cc1 [Compound 10o, (E)-2-((5-(3-(4-methoxyphenyl)acryloyl)-4-methylthiazol-2-yl)thio)-N-(4-(p-tolyl)thiazol-2-yl)acetamide]
- Bax Conc [1]: 285 pg/mL and 285 ± 7 pg/mL
- Bax Fold change [1]: 35 fold
- IC50 [6]: 7 µM
- Average of Relative viability of cells (%) (prostatic - PC-3; PC-3, 1.56 µM): 99.3%
- Average of Relative viability of cells (%) (prostatic - PC-3; PC-3, 3.125 µM): 87.4%
- Average of Relative viability of cells (%) (prostatic - PC-3; PC-3, 6.25 µM): 61.1%
- Average of Relative viability of cells (%) (prostatic - PC-3; PC-3, 12.5 µM): 48.2%
- Average of Relative viability of cells (%) (prostatic - PC-3; PC-3, 25 µM): 31.6%
- Average of Relative viability of cells (%) (prostatic - PC-3; PC-3, 50 µM): 23.7%
- Average of Relative viability of cells (%) (prostatic - PC-3; PC-3, 100 µM): 14.3%
- IC50 (prostatic - PC-3): 13 ± 1 µM
- Average of Relative viability of cells (%) (breast - MCF-7; MCF-7, 1.56 µM): 73.4%
- Average of Relative viability of cells (%) (breast - MCF-7; MCF-7, 3.125 µM): 61.6%
- Average of Relative viability of cells (%) (breast - MCF-7; MCF-7, 6.25 µM): 45.1%
- Average of Relative viability of cells (%) (breast - MCF-7; MCF-7, 12.5 µM): 29.7%
- Average of Relative viability of cells (%) (breast - MCF-7; MCF-7, 25 µM): 20.3%
- Average of Relative viability of cells (%) (breast - MCF-7; MCF-7, 50 µM): 11.9%
- Average of Relative viability of cells (%) (breast - MCF-7; MCF-7, 100 µM): 7.2%
- IC50 (breast - MCF-7): 5 ± 0.4 µM
- Average of Relative viability of cells (%) (colon - HCT-116; HCT-116, 1.56 µM): 89.1%
- Average of Relative viability of cells (%) (colon - HCT-116; HCT-116, 3.125 µM): 66.5%
- Average of Relative viability of cells (%) (colon - HCT-116; HCT-116, 6.25 µM): 51.6%
- Average of Relative viability of cells (%) (colon - HCT-116; HCT-116, 12.5 µM): 24.5%
- Average of Relative viability of cells (%) (colon - HCT-116; HCT-116, 25 µM): 22.7%
- Average of Relative viability of cells (%) (colon - HCT-116; HCT-116, 50 µM): 15.2%
- Average of Relative viability of cells (%) (colon - HCT-116; HCT-116, 100 µM): 7.8%
- IC50 (colon - HCT-116): 6 ± 0.4 µM
- viability at 96 h, 50 µM [2]: 90%
- Caspase-9 Conc [3]: 0.90 ng/mL and 0.90 ± 0.10 ng/mL
- Caspase-9 Fold change [3]: 9 fold
- Average of Relative viability of cells (%) (- MDAMB-231; MDAMB-231, 1.56 µM): 61.2%
- Average of Relative viability of cells (%) (- MDAMB-231; MDAMB-231, 3.125 µM): 47.1%
- Average of Relative viability of cells (%) (- MDAMB-231; MDAMB-231, 6.25 µM): 37.3%
- Average of Relative viability of cells (%) (- MDAMB-231; MDAMB-231, 12.5 µM): 26.7%
- Average of Relative viability of cells (%) (- MDAMB-231; MDAMB-231, 25 µM): 17.6%
- Average of Relative viability of cells (%) (- MDAMB-231; MDAMB-231, 50 µM): 10.2%
- Average of Relative viability of cells (%) (- MDAMB-231; MDAMB-231, 100 µM): 4.5%
- More potency than sorafenib, MDAMB-231 (pancreatic - MDAMB-231; MDAMB-231 cancer cell line): 2.7 fold
- IC50 (pancreatic - MDAMB-231): 3 ± 0.1 µM
- Caspase-3 Conc [4]: 605 ± 5 pg/mL
- Caspase-3 Fold change [4]: 9 fold
- Bcl-2 Conc [5]: 1.05 ng/mL
- Bcl-2 Fold reduction [5]: 5 fold
- Tub %inh (tubulin; conc 0.1 (unit not given)): 16%
- Tub K.Activity (tubulin; conc 0.1 (unit not given)): 100.77
- Tub %inh (tubulin; conc 1 (unit not given)): 34%
- Tub K.Activity (tubulin; conc 1 (unit not given)): 79.173
- Tub %inh (tubulin; conc 10 (unit not given)): 54.8%
- Tub K.Activity (tubulin; conc 10 (unit not given)): 54.254
- Tub %inh (tubulin; conc 50 (unit not given)): 76.2%
- Tub K.Activity (tubulin; conc 50 (unit not given)): 28.504
- Tub %inh (tubulin; conc 100 (unit not given)): 90.9%
- Tub K.Activity (tubulin; conc 100 (unit not given)): 10.964
- IC50 (tubulin): 3.62 ± 0.11 µM

Compound: Cc1nc(SCC(=O)Nc2nccs2)sc1C(=O)/C=C/c1ccc(F)cc1 [Compound 13c, (E)-2-((5-(3-(4-fluorophenyl)acryloyl)-4-methylthiazol-2-yl)thio)-N-(thiazol-2-yl)acetamide]
- Reduced potency compared to doxorubicin (GI50) ([6]; GI50 ratio): at least 2.5 fold
- Reduced potency compared to sorafenib (GI50) ([6]; GI50 ratio): ≥ 1.5 fold
- IC50 [6]: 26 µM
- Average of Relative viability of cells (%) (prostatic - PC-3; PC-3, 1.56 µM): 100%
- Average of Relative viability of cells (%) (prostatic - PC-3; PC-3, 3.125 µM): 99.1%
- Average of Relative viability of cells (%) (prostatic - PC-3; PC-3, 6.25 µM): 87.9%
- Average of Relative viability of cells (%) (prostatic - PC-3; PC-3, 12.5 µM): 67.7%
- Average of Relative viability of cells (%) (prostatic - PC-3; PC-3, 25 µM): 54.6%
- Average of Relative viability of cells (%) (prostatic - PC-3; PC-3, 50 µM): 42.1%
- Average of Relative viability of cells (%) (prostatic - PC-3; PC-3, 100 µM): 28.8%
- IC50 (prostatic - PC-3): 34 ± 2.1 µM
- Average of Relative viability of cells (%) (breast - MCF-7; MCF-7, 1.56 µM): 100%
- Average of Relative viability of cells (%) (breast - MCF-7; MCF-7, 3.125 µM): 96.3%
- Average of Relative viability of cells (%) (breast - MCF-7; MCF-7, 6.25 µM): 83.0%
- Average of Relative viability of cells (%) (breast - MCF-7; MCF-7, 12.5 µM): 68.1%
- Average of Relative viability of cells (%) (breast - MCF-7; MCF-7, 25 µM): 51.6%
- Average of Relative viability of cells (%) (breast - MCF-7; MCF-7, 50 µM): 36.7%
- Average of Relative viability of cells (%) (breast - MCF-7; MCF-7, 100 µM): 21.7%
- IC50 (breast - MCF-7): 28 ± 1.8 µM
- Average of Relative viability of cells (%) (colon - HCT-116; HCT-116, 1.56 µM): 100%
- Average of Relative viability of cells (%) (colon - HCT-116; HCT-116, 3.125 µM): 92.6%
- Average of Relative viability of cells (%) (colon - HCT-116; HCT-116, 6.25 µM): 73.1%
- Average of Relative viability of cells (%) (colon - HCT-116; HCT-116, 12.5 µM): 51.3%
- Average of Relative viability of cells (%) (colon - HCT-116; HCT-116, 25 µM): 42.2%
- Average of Relative viability of cells (%) (colon - HCT-116; HCT-116, 50 µM): 29.9%
- Average of Relative viability of cells (%) (colon - HCT-116; HCT-116, 100 µM): 16.1%
- IC50 (colon - HCT-116): 18 ± 1.4 µM
- viability at 96 h, 50 µM [2]: 86%
- Average of Relative viability of cells (%) (- MDAMB-231; MDAMB-231, 1.56 µM): 100%
- Average of Relative viability of cells (%) (- MDAMB-231; MDAMB-231, 3.125 µM): 93.3%
- Average of Relative viability of cells (%) (- MDAMB-231; MDAMB-231, 6.25 µM): 71.6%
- Average of Relative viability of cells (%) (- MDAMB-231; MDAMB-231, 12.5 µM): 54.8%
- Average of Relative viability of cells (%) (- MDAMB-231; MDAMB-231, 25 µM): 50.1%
- Average of Relative viability of cells (%) (- MDAMB-231; MDAMB-231, 50 µM): 38.9%
- Average of Relative viability of cells (%) (- MDAMB-231; MDAMB-231, 100 µM): 19.6%
- IC50 (pancreatic - MDAMB-231): 23 ± 1.7 µM
- Tub %inh (tubulin; conc 0.1 (unit not given)): 6.12%
- Tub K.Activity (tubulin; conc 0.1 (unit not given)): 112.66
- Tub %inh (tubulin; conc 1 (unit not given)): 27.4%
- Tub K.Activity (tubulin; conc 1 (unit not given)): 87.115
- Tub %inh (tubulin; conc 10 (unit not given)): 48.8%
- Tub K.Activity (tubulin; conc 10 (unit not given)): 61.436
- Tub %inh (tubulin; conc 50 (unit not given)): 71.2%
- Tub K.Activity (tubulin; conc 50 (unit not given)): 34.549
- Tub %inh (tubulin; conc 100 (unit not given)): 90.8%
- Tub K.Activity (tubulin; conc 100 (unit not given)): 10.995
- IC50 (tubulin): 6.05 ± 0.18 µM

Compound: CN[C@@H]1C[C@H]2O[C@@](C)([C@@H]1OC)n1c3ccccc3c3c4c(c5c6ccccc6n2c5c31)C(=O)NC4 [Staurosporine, reference compound]
- Bax Conc [1]: 280 ± 7 pg/mL
- Bax Fold change [1]: 35 fold
- Bax Conc ([1]; listed as staurosporine): 280 pg/mL
- Caspase-9 Conc [3]: 1.30 ± 0.10 ng/mL
- Caspase-9 Fold change [3]: 13 fold
- Caspase-9 Conc ([3]; listed as staurosporine): 1.30 ng/mL
- Caspase-3 Conc [4]: 510 ± 4 pg/mL
- Caspase-3 Fold change [4]: 8 fold
- Bcl-2 Conc [5]: 1.10 ng/mL
- Bcl-2 Fold reduction [5]: 5 fold
